Measurements published in patent US20230075856A1, “CYCLIC SULFAMIDE COMPOUNDS FOR TREATMENT OF HBV” (Assembly Biosciences, Inc., priority 2018, published 2023).
Read-outs that look alike come from different tables or passages of the source.

Test system: HBV viral load production from HepAD38 cells
Test: Viral production from HepAD38 cells: viral load in supernatant by qPCR of the HBV core sequence
Format: cell-based
Conditions: 5 days incubation, qPCR of supernatant HBV DNA vs DMSO control, read-out: viral load lowering EC50 (Activity)
Method in brief: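 HepAD38 cells seeded at 50,000/well in tetracycline-free medium with 2% FBS, treated with compounds (final top concentration 10 μM) for 5 days at 37 °C. Supernatant HBV DNA quantified by TaqMan qPCR of core sequence against HBV DNA standards, relative to DMSO controls; EC50 by four-parameter logistic fit.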

[1] = Hepatitis B virus, HePAD38, 120 h

| Compound | EC50 [1] [nM] | EC50 [nM] |
| --- | --- | --- |
| C[C@@H](NC(=O)C1CC(C(=O)Nc2ccc(F)c(C#N)c2)N(C)S(=O)(=O)N1)c1ccc(F)cc1 (stereo partly shown) [Compound 776] | 100 to 10000 | – |
| CN1C(C(=O)Nc2ccc(F)c(Cl)c2)CC(C(=O)NCc2ccccc2-n2ccnc2)NS1(=O)=O (single isomer, unassigned; isomer-a) [Compound 910-ISOMER-A, N3-(3-chloro-4-fluoro-phenyl)-N5-[(2-imidaozl-1-ylphenyl)methyl]-2-methyl-1,1-dioxo-1,2,6-thiadiazinane-3,5-dicarboxamide] | – | < 50 |
| N3-(3-chloro-4-fluoro-phenyl)-N5-[(S)-(2-chlorothiazol-5-yl)-phenyl-methyl]-2-methyl-1,1-dioxo-1,2,6-thiadiazinane-3,5- [1066-ISOMER-B] | – | < 50 |
| CN1C(C(=O)Nc2ccc(F)c(Cl)c2)CC(C(=O)N[C@@H](c2ccccc2)c2cnc(Cl)s2)NS1(=O)=O (single isomer, unassigned) [1066-ISOMER-D] | 100 to 10000 | – |
| Cc1nc(-c2ccccc2F)sc1[C@H](NC(=O)C1CC(C(=O)Nc2ccc(F)c(Cl)c2)N(C)S(=O)(=O)N1)c1ccccc1 (single isomer, unassigned) [1101-ISOMER-A] | < 50 | – |
| CN1C(C(=O)Nc2ccc(F)c(Cl)c2)CC(C(=O)NC2CCCc3nc(-c4ccc(OCCN5CCCCC5)cc4)sc32)NS1(=O)=O (single isomer, unassigned; isomer-d) [Compound 948-ISOMER-D] | – | < 50 |
| CN1C(C(=O)Nc2ccc(F)c(Cl)c2)CC(C(=O)NCc2nn(-c3ccccc3F)c3ccccc23)NS1(=O)=O (stereo not shown) [Compound 1086] | < 50 | – |
| Cc1nc(-c2ccccc2Cl)sc1[C@@H](NC(=O)C1CC(C(=O)Nc2ccc(F)c(Cl)c2)N(C)S(=O)(=O)N1)c1ccccc1 (single isomer, unassigned) [1100-ISOMER-D] | 100 to 10000 | – |
| CN1C(C(=O)Nc2ccc(F)c(Cl)c2)CC(C(=O)NCc2nn(-c3ccccc3)c3ccccc23)NS1(=O)=O (stereo not shown) [Compound 1072] | < 50 | – |
| Cc1nc(-c2ccc(OCCN3CCCCC3)cc2)sc1CNC(=O)C1CC(C(=O)Nc2ccc(F)c(Cl)c2)N(C)S(=O)(=O)N1 (single isomer, unassigned) [1087-ISOMER-A, N3-(3-chloro-4-fluoro-phenyl)-2-methyl-N5-[[4-methyl-2-[4-[2-(1-piperidyl)ethoxy]phenyl]thiazol-5-yl]methyl]-1,1-dioxo-1,2,6-thiadiazinane-3,5-dicarboxamide] | < 50 | – |
| Cc1c(CNC(=O)C2CC(C(=O)Nc3ccc(F)c(Cl)c3)N(C)S(=O)(=O)N2)nnn1-c1ccccc1 (single isomer, unassigned; isomer-b) [1148-ISOMER-B, N3-(3-chloro-4-fluoro-phenyl)-2-methyl-N5-[(5-methyl-1-phenyl-triazol-4-yl)methyl]-1,1-dioxo-1,2,6-thiadiazinane-3,5-dicarboxamide] | – | 100 to 10000 |
| CC(C)OC1CCC(NC(=O)C2CC(C(=O)Nc3ccc(F)c(Cl)c3)N(C)S(=O)(=O)N2)CC1 (stereo not shown) [Compound 862] | < 50 | – |
| C[C@H](NC(=O)C1CC(C(=O)Nc2ccc(F)c(Cl)c2)N(C)S(=O)(=O)N1)c1ccc(F)cc1 (stereo partly shown) [Compound 493-S] | < 50 | – |
| CN1C(C(=O)Nc2ccc(F)c(Cl)c2)CC(C(=O)NCc2cc(-c3ccccc3)on2)NS1(=O)=O (single isomer, unassigned) [1149-ISOMER-A, N3-(3-chloro-4-fluoro-phenyl)-2-methyl-1,1-dioxo-N5-[(5-phenylisoxazol-3-yl)methyl]-1,2,6-thiadiazinane-3,5-dicarboxamide] | < 50 | – |
| CN1C(C(=O)Nc2ccc(F)c(Cl)c2)CC(C(=O)NCc2cnc(-c3ccccc3Cl)s2)NS1(=O)=O (stereo not shown) [Compound 912] | < 50 | – |
| CN1C(C(=O)Nc2ccc(F)c(Cl)c2)CC(C(=O)NCc2nc(C(F)(F)F)cs2)NS1(=O)=O (single isomer, unassigned) [1202-ISOMER-A, N3-(3-chloro-4-fluoro-phenyl)-2-methyl-1,1-dioxo-N5-[[4-(trifluoromethyl)thiazol-2-yl]methyl]-1,2,6-thiadiazinane-3,5-dicarboxamide] | 100 to 10000 | – |
| CN1C(C(=O)Nc2ccc(F)c(Cl)c2)CC(C(=O)NCC2CCN(c3ccccn3)CC2)NS1(=O)=O (stereo not shown) [Compound 961] | 100 to 10000 | – |
| CN1C(C(=O)Nc2ccc(F)c(C#N)c2)CC(C(=O)NCc2cnc(C(F)(F)F)s2)NS1(=O)=O (stereo not shown) [Compound 772] | < 50 | – |
| COC(=O)N1CCC(NC(=O)C2CC(C(=O)Nc3ccc(F)c(Cl)c3)N(CC(F)(F)F)S(=O)(=O)N2)CC1 (stereo not shown) [Compound 893] | < 50 | – |

| Compound | EC50 [1] [nM] | EC50 [nM] |
| --- | --- | --- |
| CN1C(C(=O)Nc2ccc(F)c(Cl)c2)CC(C(=O)NCc2cnc(-n3ccnn3)s2)NS1(=O)=O (stereo not shown) [Compound 1158] | < 50 | – |
| CN1C(C(=O)Nc2ccc(F)c(Cl)c2)CC(C(=O)NCc2cnc(-c3cccc(Cl)c3)s2)NS1(=O)=O (single isomer, unassigned; isomer-b) [Compound 913-ISOMER-B, N3-(3-chloro-4-fluoro-phenyl)-N5-[[2-(3-chlorophenyl)thiazol-5-yl]methyl]-2-methyl-1,1-dioxo-1,2,-thiadiazinane-3,5-dicarboxamide] | – | < 50 |
| CN1C(C(=O)Nc2ccc(F)c(Cl)c2)CC(C(=O)Nc2cccnc2)NS1(=O)=O (stereo not shown) [Compound 708] | 100 to 10000 | – |
| CN1C(C(=O)Nc2ccc(F)c(Cl)c2)CC(C(=O)N[C@@H](c2ccccc2)c2cnc(-c3ccccc3)s2)NS1(=O)=O (single isomer, unassigned) [1067-ISOMER-D] | 100 to 10000 | – |
| Cc1nc(-c2ccc(F)cc2)sc1CNC(=O)C1CC(C(=O)Nc2ccc(F)c(Cl)c2)N(C)S(=O)(=O)N1 (single isomer, unassigned) [1056-ISOMER-A, N3-(3-chloro-4-fluoro-phenyl)-N5-[[2-(4-fluorophenyl)-4-methyl-thiazol-5-yl]methyl]-2-methyl-1,1-dioxo-1,2,6-thiadiazinane-3,5-dicarboxamide] | 100 to 10000 | – |
| CCN1C(C(=O)Nc2ccc(F)c(Cl)c2)CC(C(=O)NCc2cnc(C)s2)NS1(=O)=O (single isomer, unassigned) [Compound 888-ISOMER-B, N3-(3-chloro-4-fluoro-phenyl)-2-ethyl-N5-[(2-methylthiazol-5-yl)methyl]-1,1-dioxo-1,2,6-thiadiazinane-3,5-dicarboxamide] | – | < 50 |
| CN1C(C(=O)Nc2ccc(F)c(Cl)c2)CC(C(=O)NCc2cn(-c3ccccc3)cn2)NS1(=O)=O (single isomer, unassigned) [1145-ISOMER-B, N3-(3-chloro-4-fluoro-phenyl)-2-methyl-1,1-dioxo-N5-[(1-phenylimidazol-4-yl)methyl]-1,2,6-thiadiazinane-3,5-dicarboxamide] | – | 100 to 10000 |
| Cc1nc(-c2ccccc2F)sc1CN(C(=O)C1CC(C(N)=O)NS(=O)(=O)N1C)c1ccc(F)c(Cl)c1 (single isomer, unassigned) [1016-ISOMER-A, N3-(3-chloro-4-fluoro-phenyl)-N-[[2-(2-fluorophenyl)-4-methyl-thiazol-5-yl]methyl]-2-methyl-1,1-dioxo-1,2,6-thiadiazinane-3,5-dicarboxamide] | < 50 | – |
| CN1C(C(=O)Nc2ccc(F)c(Cl)c2)CC(C(=O)NC2CCN(S(=O)(=O)C(F)(F)F)CC2)NS1(=O)=O (stereo not shown) [Compound 856] | 100 to 10000 | – |
| Cc1c(CNC(=O)C2CC(C(=O)Nc3ccc(F)c(Cl)c3)N(C)S(=O)(=O)N2)noc1-c1ccccc1 (single isomer, unassigned) [1150-ISOMER-A, N3-(3-chloro-4-fluoro-phenyl)-2-methyl-N5-[(4-methyl-5-phenyl-isoxazol-3-yl)methyl]-1,1-dioxo-1,2,6-thiadiazinane-3,5-dicarboxamide] | < 50 | – |
| CN1C(C(=O)Nc2ccc(F)c(Cl)c2)CC(C(=O)NC2CCN(c3ccnc(-c4ccccc4)c3)CC2)NS1(=O)=O (single isomer, unassigned) [1050-ISOMER-B, N3-(3-chloro-4-fluoro-phenyl)-2-methyl-1,1-dioxo-N5-[1-(2-phenyl-4-pyridyl)-4-piperidyl]-1,2,6-thiadiazinane-3,5-dicarboxamide] | – | < 50 |
| CN1C(C(=O)Nc2ccc(F)c(Cl)c2)CC(C(=O)NCc2ccccc2-c2cn(C)cn2)NS1(=O)=O (stereo not shown) [Compound 823] | < 50 | – |
| N3-(3-chloro-4-fluoro-phenyl)-2-methyl-1,1-(trifluoromethyl)phenyl]ethyl]-1,2,6-thiadiazinane-3,5-dicarboxamide [493-S-ISOMER-B] | – | 100 to 10000 |
| Cc1nc(-c2ccc(F)cc2F)sc1CNC(=O)C1CC(C(=O)Nc2ccc(F)c(Cl)c2)N(C)S(=O)(=O)N1 (stereo not shown) [Compound 1083] | < 50 | – |
| CN1C(C(=O)Nc2ccc(F)c(Cl)c2)CC(C(=O)NCc2cnc(-c3ccc(C#CCN4CCCCC4)cc3)s2)NS1(=O)=O (single isomer, unassigned) [Compound 946-ISOMER-A, N3-(3-chloro-4-fluoro-phenyl)-2-methyl-1,1-dioxo-N5-[[2-[4-[3-(1-piperidyl)prop-1-ynyl]phenyl]thiazol-5-yl]methyl]-1,2,6-thiadiazinane-3,5-dicarboxamide] | < 50 | – |
| Cc1nc(-c2ccccc2)sc1CNC(=O)C1CC(C(=O)Nc2ccc(F)c(Cl)c2)N(C)S(=O)(=O)N1 (single isomer, unassigned) [Compound 914-ISOMER-B, N3-(3-chloro-4-fluoro-phenyl)-2-methyl-N5-[(4-methyl-2-phenyl-thiazol-5-yl)methyl]-1,1-dioxo-1,2,6-thiadiazinane-3,5-dicarboxamide] | – | 50 to 100 |
| Cc1nc(-c2ccccc2)sc1C(NC(=O)C1CC(C(=O)Nc2ccc(F)c(Cl)c2)N(C)S(=O)(=O)N1)c1ccccc1 (stereo not shown) [Compound 1099] | 50 to 100 | – |
| CC(NC(=O)C1CC(C(=O)Nc2ccc(F)c(Cl)c2)N(C)S(=O)(=O)N1)c1csc(-c2ccccc2Cl)n1 (stereo not shown) [Compound 1029] | 100 to 10000 | – |
